Tests used:
[1] = system: hippocampal dentate gyrus; conditions: induced by high-frequency electrical stimulation of the afferent perforant pathway; cited from earlier work
[2] = Thermal decomposition on drying by heating; type: physicochemical; conditions: drying through heating to release residual solvents
[3] = Stability of the solid form, conversion between polymorphs; type: physicochemical; conditions: for stability of the polymorphic form: hydrochloride
c-Fos immunoreactivity = conditions: in vivo; cited from earlier work
GLYT-1 = target: T1, GLYT-1 (Homo sapiens, UniProt P48067); conditions: in vitro; cited from earlier work
T1 sequence (P48067 1-706): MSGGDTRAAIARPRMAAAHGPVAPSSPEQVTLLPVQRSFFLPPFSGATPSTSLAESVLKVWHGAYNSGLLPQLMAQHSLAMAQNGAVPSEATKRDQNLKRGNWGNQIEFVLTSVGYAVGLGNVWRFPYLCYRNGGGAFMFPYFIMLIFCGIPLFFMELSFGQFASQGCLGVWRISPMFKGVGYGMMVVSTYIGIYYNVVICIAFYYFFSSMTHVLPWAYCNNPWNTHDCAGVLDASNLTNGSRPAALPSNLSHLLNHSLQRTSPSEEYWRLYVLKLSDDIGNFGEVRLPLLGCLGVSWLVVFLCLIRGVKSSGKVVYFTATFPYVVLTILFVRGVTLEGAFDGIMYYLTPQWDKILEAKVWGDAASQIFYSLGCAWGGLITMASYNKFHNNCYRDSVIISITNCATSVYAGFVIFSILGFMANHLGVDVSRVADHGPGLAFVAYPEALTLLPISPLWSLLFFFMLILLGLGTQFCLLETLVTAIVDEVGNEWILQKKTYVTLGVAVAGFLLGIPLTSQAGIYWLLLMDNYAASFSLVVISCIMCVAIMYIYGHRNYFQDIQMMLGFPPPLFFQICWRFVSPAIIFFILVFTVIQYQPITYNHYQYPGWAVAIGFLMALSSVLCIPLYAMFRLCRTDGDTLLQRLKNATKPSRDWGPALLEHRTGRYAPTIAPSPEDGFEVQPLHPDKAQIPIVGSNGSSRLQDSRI

DBA/2J mice = conditions: strain with low basal pre-pulse inhibition; cited from earlier work
NMDA receptor = conditions: cited from earlier work

## CN(CCC(Oc1ccc(-c2ccccc2)cc1)c1ccc(F)cc1)CC(=O)O (racemic) [(+/−)-NFPS, N-[3-(4′-fluorophenyl)-3-(4′-phenylphenoxy)propyl]sarcosine]
[1]
  long-term potentiation: significantly enhanced

## Cl.O=C(N[C@@H](c1ccccc1)[C@@H]1CC2CCN1CC2)c1c(Cl)ccc(C(F)(F)F)c1Cl [Form A, N—[(S)-2(S)-1-azabicyclo[2.2.2]oct-2-yl(phenyl)methyl]-2,6-dichloro-3-(trifluoromethyl)benzamide hydrochloride]
[2]
  temperature above which thermal decomposition of the compound occurs: above 220 °C
[3]; listed as polymorph A
  stability of the polymorphic form: highly stable

## Cl.O=C(N[C@@H](c1ccccc1)[C@@H]1CC2CCN1CC2)c1c(Cl)ccc(C(F)(F)F)c1Cl [Form B, N—[(S)-2(S)-1-azabicyclo[2.2.2]oct-2-yl(phenyl)methyl]-2,6-dichloro-3-(trifluoromethyl)benzamide hydrochloride]
Solubility in water
  solubility: > 200 mg/mL
Solubility in water; 45° C.
  solubility in water: highly soluble in water
[3]; aqueous system
  conversion to polymorph A: readily converts to the desired polymorph A
[3]
  stability of the polymorphic form: lower stability than Form A

## CN(CCC(Oc1ccc(-c2ccccc2)cc1)c1ccc(F)cc1)CC(=O)O (single isomer, unassigned; (+)) [(+)-NFPS, (+)N-[3-(4′-fluorophenyl)-3-(4′-phenylphenoxy)-propyl]sarcosine]
c-Fos immunoreactivity
  pattern of c-Fos immunoreactivity: comparable with the atypical anti-psychotic clozapine
GLYT-1
  activity relative to the racemic compound: greater than 10 fold
DBA/2J mice
  pre-pulse inhibition of the acoustic startle response: enhanced
NMDA receptor
  NMDA-induced [3H]GABA release: significantly stimulated

Source: patent US20120022099A1, “NOVEL POLYMORPHIC FORMS OF AN AZABICYCLO-TRIFLUOROMETHYL BENZAMIDE DERIVATIVE” (SANOFI, priority 2008, published 2012)
